Reference: US20250163038A1, “CBL-B MODULATORS AND USES THEREOF” (Nimbus Clio, Inc., priority 2021, published 2025)
Read-outs that look alike come from different tables or passages of the source.

Tests used:
[1] = molecular target: Recombinant human Cbl-b (aa 36-427) (Homo sapiens, UniProt Q13191); assay: Cbl-b Biochemical Assay (TR-FRET); settings: read-out: TR-FRET hCbl-b IC50
[2] = system: Jurkat (clone E6-1) cells with NFAT luciferase reporter; assay: Jurkat reporter assay (NFAT Luciferase); format: cell-based; settings: Jurkat NFAT luciferase reporter cells, anti-CD3 stimulation, 6 hr, read-out: Jurkat NFAT EC50
[3] = molecular target: T1, Recombinant human c-Cbl (aa 47-435) (Homo sapiens, UniProt P22681); assay: c-Cbl Biochemical Assay (TR-FRET); settings: hc-Cbl Biochemical Assay (TR-FRET); read-out: TR-FRET hcCbl IC50
T1 sequence (P22681 47-435): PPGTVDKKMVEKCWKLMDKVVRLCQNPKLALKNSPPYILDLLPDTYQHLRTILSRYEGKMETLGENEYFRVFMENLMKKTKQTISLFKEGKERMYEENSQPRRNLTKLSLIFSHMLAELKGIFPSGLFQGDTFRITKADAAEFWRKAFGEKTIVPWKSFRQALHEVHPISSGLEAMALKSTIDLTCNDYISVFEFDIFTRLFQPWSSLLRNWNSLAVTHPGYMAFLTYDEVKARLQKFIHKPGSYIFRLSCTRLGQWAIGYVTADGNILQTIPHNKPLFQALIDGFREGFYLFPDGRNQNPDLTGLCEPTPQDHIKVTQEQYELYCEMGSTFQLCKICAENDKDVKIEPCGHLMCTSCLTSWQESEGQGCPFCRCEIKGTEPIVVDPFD

Sequence of Recombinant human Cbl-b (aa 36-427) (Q13191 36-427): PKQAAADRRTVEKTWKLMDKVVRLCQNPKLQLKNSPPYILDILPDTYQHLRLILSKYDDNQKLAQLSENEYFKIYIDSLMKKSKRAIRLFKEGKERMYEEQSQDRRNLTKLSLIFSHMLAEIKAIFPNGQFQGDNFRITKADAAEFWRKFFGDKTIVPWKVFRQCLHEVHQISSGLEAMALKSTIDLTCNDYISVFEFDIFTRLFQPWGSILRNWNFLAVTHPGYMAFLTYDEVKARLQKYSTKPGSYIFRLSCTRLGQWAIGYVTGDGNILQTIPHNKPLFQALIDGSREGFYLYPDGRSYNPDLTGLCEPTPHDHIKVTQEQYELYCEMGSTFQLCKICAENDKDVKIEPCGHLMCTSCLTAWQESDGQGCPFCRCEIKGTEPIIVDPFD

Row | Compound | IC50 [1] [nM] | EC50 ([2]; Homo sapiens) [nM] | IC50 [3] [nM] | EC50 [2] [nM]
1 | C[C@@H](c1cc(C(F)(F)F)c2[nH]c(-c3cccc(C4(Cc5nncn5C)COC4)c3)nc2c1)N1CCC2(CC2)C1 [ACM-1, (S)-5-(1-(5-Azaspiro[2.4]heptan-5-yl)ethyl)-2-(3-(3-((4-methyl-4H-1,2,4-triazol-3-yl)methyl)oxetan-3-yl)phenyl)-7-(trifluoromethyl)-1H-benzo[d]imidazole] | 200 to 1000 | 1000 to 10000 | 10000 to 50000 | –
2 | C[C@H](c1cc(C(F)(F)F)c2[nH]c(-c3cccc(C4(Cc5nncn5C)COC4)c3)nc2c1)N1CCC2(CC2)C1 [ACN-1, (R)-5-(1-(5-Azaspiro[2.4]heptan-5-yl)ethyl)-2-(3-(3-((4-methyl-4H-1,2,4-triazol-3-yl)methyl)oxetan-3-yl)phenyl)-7-(trifluoromethyl)-1H-benzo[d]imidazole] | 200 to 1000 | 1000 to 10000 | 200 to 1000 | –
3 | Cn1cnnc1[C@]1(c2cccc(-c3nc4cc(CN[C@@H]5CCC[C@@H]5O)cc(C(F)(F)F)c4o3)c2)C[C@@H](C)C1 [ADE-3, (1S,2R)-2-{[(2-{3-[(1r,3s)-3-Methyl-1-(4-methyl-1,2,4-triazol-3-yl)cyclobutyl]phenyl}-7-(trifluoromethyl)-1,3-benzoxazol-5-yl)methyl]amino}cyclopentan-1-ol] | < 200 | – | < 200 | < 200
4 | Cn1cnnc1-c1cc(Cl)ccc1-c1cccc(-c2nc3cc(CN[C@@H]4CCC[C@@H]4O)cc(C(F)(F)F)c3o2)c1 [ADI-3, (1S,2R)-2-[({2-[4′-Chloro-2′-(4-methyl-1,2,4-triazol-3-yl)-[1,1′-biphenyl]-3-yl]-7-(trifluoromethyl)-1,3-benzoxazol-5-yl}methyl)amino]cyclopentan-1-ol] | < 200 | < 200 | < 200 | –
5 | Cn1cnnc1-c1cc(Cl)ccc1-c1cccc(-c2nc3cc(CO)ccc3o2)c1 [ADK-1, {2-[4′-Chloro-2′-(4-methyl-1,2,4-triazol-3-yl)-[1,1′-biphenyl]-3-yl]-1,3-benzoxazol-5-yl}methanol] | 1000 to 10000 | 10000 to 50000 | 1000 to 10000 | –

Now from value to molecule, other results behind:

Row | IC50 [1] [nM] | EC50 ([2]; Homo sapiens) [nM] | IC50 [3] [nM] | Compound | EC50 [2] [nM]
6 | < 200 | < 200 | < 200 | Cn1cnnc1-c1cc(F)ccc1-c1cc(-c2nc3cc(CN[C@@H]4CCC[C@@H]4O)cc(C(F)(F)F)c3o2)cc(C2CC2)c1 [ACZ-8, (1S,2R)-2-[({2-[5-Cyclopropyl-4′-fluoro-2′-(4-methyl-1,2,4-triazol-3-yl)-[1,1′-biphenyl]-3-yl]-7-(trifluoromethyl)-1,3-benzoxazol-5-yl}methyl)amino]cyclopentan-1-ol] | –
7 | < 200 | 1000 to 10000 | 1000 to 10000 | Cn1cnnc1-c1cc(F)ccc1-c1cccc(-c2nc3cc(CN4CC[C@H](O)C4)cc(C(F)(F)F)c3o2)c1 [AD-2, (S)-1-((2-(4′-Fluoro-2′-(4-methyl-4H-1,2,4-triazol-3-yl)-[1,1′-biphenyl]-3-yl)-7-(trifluoromethyl)benzo[d]oxazol-5-yl)methyl)pyrrolidin-3-ol] | –
8 | < 200 | < 200 | < 200 | Cn1cnnc1-c1cc(F)ccc1-c1cc(-c2nc3cc(CN[C@@H]4CCC[C@@H]4O)cc(C(F)(F)F)c3o2)nc(C2CC2)c1 [ADA-6, (1S,2R)-2-{[(2-{6-Cyclopropyl-4-[4-fluoro-2-(4-methyl-1,2,4-triazol-3-yl)phenyl]pyridin-2-yl}-7-(trifluoromethyl)-1,3-benzoxazol-5-yl)methyl]amino}cyclopentan-1-ol] | –
9 | < 200 | < 200 | < 200 | Cn1cnnc1-c1cc(Cl)ccc1-c1cccc(-c2nc3cc(CN[C@@H]4CCC[C@@H]4O)cc(C(F)(F)F)c3[nH]2)c1 [ADB-9, (1S,2R)-2-(((2-(4′-Chloro-2′-(4-methyl-4H-1,2,4-triazol-3-yl)-[1,1′-biphenyl]-3-yl)-7-(trifluoromethyl)-1H-benzo[d]imidazol-5-yl)methyl)amino)cyclopentan-1-ol] | –
